Measurements as given in ChEMBL document CHEMBL2203228, “Structural modifications of a 3-methoxy-2-aminopyridine compound to reduce potential for mutagenicity and time-dependent drug-drug interaction” (Bioorg Med Chem Lett, 2012).
In brackets after ≈: the same amount, converted by molar mass.

Columns and labels:
Cytochrome P450 3A4 [1] = target: T1, Cytochrome P450 3A4 (Homo sapiens, UniProt P08684); assay: Time dependent inhibition of human liver microsome CYP3A4 assessed as change in midazolam metabolism at 60 uM by two-step reaction; format: ADME; parameters: scale not given: the % may be the effect or the level left; conditions: microsomes
T1 sequence (P08684 whole entry): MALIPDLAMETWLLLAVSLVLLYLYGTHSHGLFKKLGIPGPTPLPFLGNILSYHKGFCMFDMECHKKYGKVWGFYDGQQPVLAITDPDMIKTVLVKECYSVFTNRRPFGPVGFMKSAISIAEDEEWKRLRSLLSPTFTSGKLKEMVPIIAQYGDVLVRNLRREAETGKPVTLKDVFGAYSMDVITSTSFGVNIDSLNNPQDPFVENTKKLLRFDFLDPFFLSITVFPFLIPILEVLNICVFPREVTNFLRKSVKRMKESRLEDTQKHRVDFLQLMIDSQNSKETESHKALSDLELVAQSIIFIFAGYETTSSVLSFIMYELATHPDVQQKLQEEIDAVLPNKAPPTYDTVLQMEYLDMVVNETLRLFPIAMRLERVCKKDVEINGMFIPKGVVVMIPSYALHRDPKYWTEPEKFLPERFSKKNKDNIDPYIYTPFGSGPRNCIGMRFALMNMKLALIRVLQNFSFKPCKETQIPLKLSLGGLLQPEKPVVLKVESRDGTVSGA

Salmonella typhimurium = assay: Mutagenic activity in Salmonella typhimurium assessed as fold increase in colony forming units by Bioluminescent Ames assay relative to control; format: toxicity, organism-based; conditions: salmonella enterica subsp. enterica serovar typhimurium
[2] = target: Serine/threonine-protein kinase B-raf (Homo sapiens, UniProt P15056, V600E); assay: Inhibition of B-Raf V600E mutant -mediated MEK phosphorylation
Serine/threonine-protein kinase B-raf, sequence (P15056 2-766 V600E limits assumed): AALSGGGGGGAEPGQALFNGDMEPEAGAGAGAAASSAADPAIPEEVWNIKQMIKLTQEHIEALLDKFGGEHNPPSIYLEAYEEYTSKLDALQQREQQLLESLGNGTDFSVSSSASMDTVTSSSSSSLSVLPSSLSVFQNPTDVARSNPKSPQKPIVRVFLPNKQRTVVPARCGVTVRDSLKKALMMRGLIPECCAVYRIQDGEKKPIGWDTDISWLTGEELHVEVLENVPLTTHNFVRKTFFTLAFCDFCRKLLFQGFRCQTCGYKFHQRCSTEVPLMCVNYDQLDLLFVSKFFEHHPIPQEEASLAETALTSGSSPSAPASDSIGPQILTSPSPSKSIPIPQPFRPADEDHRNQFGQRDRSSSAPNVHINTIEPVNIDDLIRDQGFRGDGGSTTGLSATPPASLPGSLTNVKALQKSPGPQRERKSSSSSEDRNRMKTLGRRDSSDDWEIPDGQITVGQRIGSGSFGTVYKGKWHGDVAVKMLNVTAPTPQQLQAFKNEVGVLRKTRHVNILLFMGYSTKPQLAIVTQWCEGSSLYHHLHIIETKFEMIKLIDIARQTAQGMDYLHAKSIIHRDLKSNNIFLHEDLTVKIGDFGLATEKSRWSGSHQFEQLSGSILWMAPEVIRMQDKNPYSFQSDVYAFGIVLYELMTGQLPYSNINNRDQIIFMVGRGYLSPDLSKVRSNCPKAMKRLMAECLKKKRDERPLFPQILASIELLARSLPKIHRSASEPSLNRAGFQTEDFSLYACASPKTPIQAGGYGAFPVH

[3] = Solubility of the compound; format: physicochemical
Cytochrome P450 3A4 [4] = target: T1, Cytochrome P450 3A4; assay: Time dependent inhibition of CYP3A4; format: ADME; conditions: TDE = time-dependent effect
[5] = Clearance in rat; format: ADME, organism-based; conditions: in vivo
[6] = Half life in rat; format: ADME, organism-based; conditions: in vivo
[7] = Oral bioavailability in rat; format: ADME, organism-based; conditions: in vivo

In the case of `Cc1c[nH]c2ncc(-c3nn(C(C)C)cc3-c3ccnc(NC[C@H](C)O)n3)cc12`, the Activity (Cytochrome P450 3A4 [1]) is reported as 11% and the “fold change (FC)” value (Salmonella typhimurium) is reported as < 2.
For `COc1cc(-c2nn(C(C)C)cc2-c2ccnc(NC[C@H](C)O)n2)cnc1N`, the IC50 [2] was 6.5 nM, the solubility [3] was 503 µM (≈ 193 µg/mL) and the “inhibition (INH)” value (Cytochrome P450 3A4 [4]) was “tde”. For the same compound, the clearance [5] was 56.3 mL/min/kg, the half-life [6] was 4.43 h and the bioavailability [7] was 43%. The Activity (Cytochrome P450 3A4 [1]) was 13%, the Activity (Salmonella typhimurium) was “Non-toxic” and the “fold change (FC)” value (Salmonella typhimurium) was 4.
With `CC(C)n1cc(-c2ccnc(NC[C@H](C)O)n2)c(-c2cnc3[nH]cc(Cl)c3c2)n1` the Activity (Cytochrome P450 3A4 [1]) was 11% and the “fold change (FC)” value (Salmonella typhimurium) was < 2.
In the case of `COc1nc(-c2nn(C(C)C)cc2-c2ccnc(NC[C@H](C)O)n2)cnc1N`, the Activity (Cytochrome P450 3A4 [1]) is reported as 30% and the “fold change (FC)” value (Salmonella typhimurium) is reported as 4.
In the case of `COc1cc(-c2nn(C(C)C)cc2-c2ccnc(NC[C@H](C)O)n2)c(C)nc1N`, the Activity (Salmonella typhimurium) is reported as “Toxic”.
For `CC(C)n1cc(-c2ccnc(NC[C@H](C)O)n2)c(-c2cnc3[nH]ncc3c2)n1`, the Activity (Cytochrome P450 3A4 [1]) was < 30% and the “fold change (FC)” value (Salmonella typhimurium) was < 2.
In the case of `CC(C)n1cc(-c2ccnc(NC[C@H](C)O)n2)c(-c2cnc3[nH]ccc3c2)n1`, the Activity (Cytochrome P450 3A4 [1]) is reported as 11% and the “fold change (FC)” value (Salmonella typhimurium) is reported as < 2.
With `CC(=O)c1cc(-c2nn(C(C)C)cc2-c2ccnc(NC[C@H](C)O)n2)cnc1N` the Activity (Cytochrome P450 3A4 [1]) was < 30% and the “fold change (FC)” value (Salmonella typhimurium) was < 2.
With `COc1cncc(-c2nn(C(C)C)cc2-c2ccnc(NC[C@H](C)O)n2)c1` the Activity (Cytochrome P450 3A4 [1]) was < 30% and the “fold change (FC)” value (Salmonella typhimurium) was < 2.
